# Paper PMC8704709, “Improved Anticancer Activities of a New Pentafluorothio-Substituted Vorinostat-Type Histone Deacetylase Inhibitor” (Pharmaceuticals, 2021)
# What was measured:
# [1] = tested on: Hep-G2 cells; test: Unspecific cytotoxicity (LDH release); format: cell-based, human; conditions: 1–10 µM, 3 and 24 h
# [2] = tested on: T-cell leukemia/lymphoma cells (Jurkat, Hut78, SMZ1, SupT11); test: Western blot in T-cell leukemia/lymphoma cells (acetyl-H3, acetyl-α-tubulin); format: cell-based, human; conditions: 24 h
# Experimental: Western blots were performed as described earlier. Cells were seeded in 100 mm petri dishes, grown to almost confluency, treated for 24 h, washed and frozen, followed by lysis with RIPA Buffer, added with one cOmplete™ Mini protease Inhibitor tablet/10 mL (Roche), and quantification with Pierce^TM BCA Protein Assay Kit (Thermo Fisher Scientific). Thereafter protein levels were normalized to untreated controls so equal protein loading of 20 µg/lane. Laemmli Buffer and β-mercaptoethanol were added before probes were desaturated at 96 °C for 10 min. First, 7.5% or 12% SDS gels (Biorad, Munich, Germany) were loaded with proteins and electrophoresis was done. Thereafter, proteins were transferred to activated polyvinylidene difluoride membranes (PVDF) by electroblotting. Finally, the membranes were blocked with 1% BSA and incubated with primary antibodies over night at 4 °C. […] Only the Jurkat cells had already a high level of α-tubulin in untreated cells and, thus, drug-induced changes were not detectable in these cells.
# Blots were washed three times with 1% TBS-Tween and incubated with anti-mouse or anti-rabbit peroxidase-coupled anti-IgG secondary antibodies (1:5000–1:10,000) at room temperature for 60 min. […]
# [3] = tested on: DU145 cells; test: Unspecific cytotoxicity (LDH release); format: cell-based, human; conditions: 1–10 µM, 3 and 24 h
# Experimental: To exclude unspecific cytotoxicity as the driving mode of action for antiproliferative effects, the release of lactate dehydrogenase (LDH) from DU145 cells was determined after 3 h and 24 h of treatment using the Cytotoxicity Detection Kit PLUS LDH (Roche Diagnostics GmbH, Mannheim, Germany). The assay was performed as described earlier. Cytotoxicity was determined by subtracting the percentage of LDH release into the supernatant under control conditions of those from treated samples. Measurements were performed in duplicate in n = 3 independent experiments and mean percentage changes ± SEM as compared to controls are shown.
# [4] = tested on: chorioallantoic membrane (CAM) of fertilized chicken eggs; test: CAM assay (angiogenesis in fertilized chicken eggs); format: in vivo
# Experimental: Anti-angiogenesis activity of SF5-SAHA was tested on the CAM (chorioallantoic membrane) of fertilized chicken eggs. The embryonic development was started by placing the eggs in a humidified (>60%) incubator in an upright position at a temperature of 37.8 °C. After 3 days, a hole of 2 mm was pierced in the eggshell top side in order to detach the developing CAM from the eggshell and let it sink into the allantoic cavity. After 10 days, the eggshell hole was broadened, and a silicone ring (1 cm Ø) was placed on the CAM, which was allowed to attach for 6 h. Then, 20 µL of SF5-SAHA containing medium or PBS (control) was added into the ring. The angiogenic states of the CAM were documented using a stereomicroscope equipped with a Kappa digital camera system (Distelkamp-Electronic, Kaiserslautern, Germany). Pictures were taken every 24 h until the finish of the experiment after 72 h. The CAM experiments were carried out with n = 3 eggs for each condition.
# [5] = tested on: DU145 cells; test: Western blot in DU145 cells (acetyl-H3, PARP, EGFR, P-mTOR); format: cell-based, human
# Experimental: Western blots were performed as described earlier. Cells were seeded in 100 mm petri dishes, grown to almost confluency, treated for 24 h, washed and frozen, followed by lysis with RIPA Buffer, added with one cOmplete™ Mini protease Inhibitor tablet/10 mL (Roche), and quantification with Pierce^TM BCA Protein Assay Kit (Thermo Fisher Scientific). Thereafter protein levels were normalized to untreated controls so equal protein loading of 20 µg/lane. Laemmli Buffer and β-mercaptoethanol were added before probes were desaturated at 96 °C for 10 min. First, 7.5% or 12% SDS gels (Biorad, Munich, Germany) were loaded with proteins and electrophoresis was done. Thereafter, proteins were transferred to activated polyvinylidene difluoride membranes (PVDF) by electroblotting. Finally, the membranes were blocked with 1% BSA and incubated with primary antibodies over night at 4 °C.
# Blots were washed three times with 1% TBS-Tween and incubated with anti-mouse or anti-rabbit peroxidase-coupled anti-IgG secondary antibodies (1:5000–1:10,000) at room temperature for 60 min. Subsequently, antibody bondage was illustrated using Clarity and Clarity Max ECL Western Blotting Substrates (Biorad, Munich, Germany) for detection and Celvin-S developer (Biostep, software SnapAndGo Vs 1.8.1) for development. […] Values were normalized to β-actin expression, which served as a loading control and compared to untreated control expressions which was set at 1. The mean ± SEM of the relative values to control are illustrated with Graph Pad Prism 8.
smiles,measurement,setting,value
O=C(CCCCCCC(=O)Nc1ccc(S(F)(F)(F)(F)F)cc1)NO [SF5-SAHA],LDH release (unspecific cytotoxicity),[1],LDH levels were even decreased
same,acetyl-α-tubulin level,[2],increased in a dose-dependent way in three out of four tested cell lines
same,acetylated histone H3 level,[2],Dose-dependent increases in acetylated H3 were observed in all tested leukemia/lymphoma cancer cell lines
same,LDH release (unspecific cytotoxicity),[3],did not induce significant increases in LDH release
same,toxicity to chicken embryos,[4]; doses of 5 and 10 µM,no toxicity
same,antiangiogenic effect on CAM,"[4]; topical application, 5 or 10 µM, 72 h",reduced vessel diameters and reduced numbers of vessel branches
same,phosphorylated mTOR (P-mTOR) level,[5],reduced the level of phosphorylated (activated) mTOR
same,EGFR protein expression,[5]; 24 h,significant downregulation of EGFR protein expression
same,PARP cleavage,[5]; 24 h,detection of PARP cleavage in treated DU145 cells
same,acetylated histone H3 level,[5]; 24 h,dose-dependent rise of H3 acetylation
